According to patent US8216592B2, “Infection model for developing chemotherapeutic agents” (priority 2007, dated 2012):

How the values were obtained:
[1] = test system: control strain MG1655; experiment: C. elegans infection system: control strain bacteria recovered from the nematode gut after treatment; format: in vivo, E. coli; conditions: MG1655-fed C. elegans; 100 μg/mL gentamicin, 50 μg/mL kanamycin, 7 μg/mL heparin or 0.01% mannose in M9 buffer, 24 hours at 26° C.; P<0.001 for all compounds tested; FIG. 4
Method: (§1) Nematodes were infected with prototypical ETEC H10407 or control MG1655 strains on NGM agar. After 24 hours of infection, 30 nematodes were harvested and placed in 1 mL M9 buffer (black bars), or M9 buffer supplemented with 100 μg/mL gentamicin (white bars), 50 μg/mL kanamycin (cross-hatched bars), 7 μg/mL heparin (checkered bars), or 0.01% mannose (speckled bars), and incubated at 26° C. for 24 hours. Values represent the means of three replicate assays, and error bars indicate 1 SD.
In one embodiment, a C. elegans/ETEC infection system can be used to screen for chemotherapeutic agents able to disrupt colonization of the nematode gut. In another embodiment, a C. elegans/ETEC infection system may be used to test a range of compounds including, for purposes of example only, the bacteriocidal antibiotic gentamicin, bacteriostatic antibiotic kanamycin, heparin, which may disrupt bacterial adherence, and mannose, which inhibits type I fimbria-mediated adherence to host cells. Age-synchronized L4 nematodes were placed on NGM agar inoculated with either strain H10407 or the control MG1655. Twenty-four hours post-infection, 30 nematodes fed each strain were placed in M9 buffer or M9 buffer supplemented with the desired compounds. After an additional 24 hours of incubation at 26° C., nematodes were harvested, washed to remove exterior bacteria, pulverized and plated on selective LB agar. […]

[2] = test system: enteropathogenic E. coli (EPEC) strain E2348/69; experiment: C. elegans infection system: EPEC bacteria recoverable from the nematode gut after treatment; format: in vivo; conditions: EPEC E2348/69-infected C. elegans; gentamicin; data not shown
Source text: With continued reference to FIG. 4, there was no significant difference in the number of recoverable ETEC bacteria after treatment with any of the other compounds tested. […] The present invention therefore also includes a C. elegans small animal infection model for studying EPEC. Accordingly, a C. elegans infection system could be used to screen for potentially therapeutic chemical agents against multiple E. coli pathotypes.

[3] = test system: ETEC strain H10407; experiment: C. elegans/ETEC infection system: screen of chemotherapeutic agents against colonization of the nematode gut; format: in vivo, E. coli; conditions: ETEC H10407-infected C. elegans, 24 hours at 26° C.
Method: as §1
In one embodiment, a C. elegans/ETEC infection system can be used to screen for chemotherapeutic agents able to disrupt colonization of the nematode gut. In another embodiment, a C. elegans/ETEC infection system may be used to test a range of compounds including, for purposes of example only, the bacteriocidal antibiotic gentamicin, bacteriostatic antibiotic kanamycin, heparin, which may disrupt bacterial adherence, and mannose, which inhibits type I fimbria-mediated adherence to host cells. Age-synchronized L4 nematodes were placed on NGM agar inoculated with either strain H10407 or the control MG1655. Twenty-four hours post-infection, 30 nematodes fed each strain were placed in M9 buffer or M9 buffer supplemented with the desired compounds. After an additional 24 hours of incubation at 26° C., nematodes were harvested, washed to remove exterior bacteria, pulverized and plated on selective LB agar.
After 3 days at 26° C., L4 nematodes were removed from feeding using a platinum wire and placed on rifampin-containing NGM agar plates with pre-grown ETEC and control strains that were incubated at 37° C. overnight. Prior to seeding of C. elegans, NGM and CFA agar plates were shifted to 26° C., the temperature where they remained for the duration of the assay. For the standard plate count assay, nematodes were fed on ETEC and control strains for 24 hours. […]

Row | Substance | reduction in the number of bacteria recovered from the nematode gut, significance [1] | reduction in the number of EPEC bacteria recoverable from the nematode gut compared to untreated EPEC-infected nematodes [2] | reduction in the number of ETEC bacteria recoverable from the nematode gut (vs M9 buffer), significance ([3]; 100 μg/mL gentamicin, 50 μg/mL kanamycin, 7 μg/mL heparin or 0.01% mannose in M9 buffer, FIG. 4) | size of the reduction in recoverable ETEC bacteria, M9 buffer versus M9 buffer supplemented with gentamicin ([3]; 100 μg/mL gentamicin) | mean number of bacteria recoverable from the nematode gut after incubation ([3]; M9 buffer supplemented with 100 μg/mL gentamicin, FIG. 4)
1 | heparin | significant reduction | – | – | – | –
2 | gentamicin | significant reduction | approximately one order of magnitude | significant (P=0.004) reduction | approximately one order of magnitude | 1×10^4 CFU per nematode
